{"source": "patent US8703957B2", "about": "(Janssen Pharmaceutica NV, priority 2001, dated 2014)", "key": {"[1]": {"target": "T1, human skin chymase (Homo sapiens, UniProt P23946)", "T1 construct": "human skin chymase (Cortex Biochem); purchased Cortex Biochem; host or cells: human skin (from the enzyme's name)", "T1 sequence (P23946 22-247)": "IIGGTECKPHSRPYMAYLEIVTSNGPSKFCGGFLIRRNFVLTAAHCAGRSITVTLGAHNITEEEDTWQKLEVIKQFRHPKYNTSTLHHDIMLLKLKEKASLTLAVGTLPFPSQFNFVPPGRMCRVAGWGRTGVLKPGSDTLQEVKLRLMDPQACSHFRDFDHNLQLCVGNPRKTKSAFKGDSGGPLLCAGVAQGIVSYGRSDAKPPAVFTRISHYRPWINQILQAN", "test": "Enzyme-catalyzed hydrolysis assay, chymase (chromogenic substrate Suc-Ala-Ala-Pro-Phe-pNa)", "assay_type": "biochemical", "details": "10 nM enzyme, 0.7 mM substrate, pH 8.0, 37° C., 30 minutes", "experimental": "(§1) Enzyme-catalyzed hydrolysis rates were measured spectrophotometrically using human neutrophil cathepsin G (Athens Research and Technology) or human skin chymase (Cortex Biochem), a chromogenic substrate (Suc-Ala-Ala-Pro-Phe-pNa) (Bachem) in aqueous buffer (100 mM Hepes, 500 mM NaCl, pH 7.4 for catG; 450 mM Tris, 1800 mM NaCl, pH 8.0 for chymase), and a microplate reader (Molecular Devices). […] Percent inhibition was calculated by comparing the initial reaction slopes of the samples without inhibitor to those with inhibitor. IC50 values were determined using a four parameter fit logistics model. The term “NT” indicates a compound that was not tested."}, "[2]": {"target": "T2, human neutrophil cathepsin G (Homo sapiens, UniProt P08311)", "T2 construct": "human neutrophil cathepsin G (Athens Research and Technology); purchased Athens Research and Technology; host or cells: human neutrophils (from the enzyme's name)", "T2 sequence (P08311 21-243 limits assumed)": "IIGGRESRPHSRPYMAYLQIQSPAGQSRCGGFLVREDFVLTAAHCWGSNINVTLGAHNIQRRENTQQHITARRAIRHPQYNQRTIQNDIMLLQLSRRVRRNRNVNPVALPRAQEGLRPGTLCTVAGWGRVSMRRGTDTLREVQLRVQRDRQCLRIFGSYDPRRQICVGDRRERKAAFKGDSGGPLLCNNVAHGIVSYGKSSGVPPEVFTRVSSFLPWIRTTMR", "test": "Enzyme-catalyzed hydrolysis assay, cathepsin G (chromogenic substrate Suc-Ala-Ala-Pro-Phe-pNa)", "assay_type": "biochemical", "details": "70 nM enzyme, 5 mM substrate, pH 7.4, 37° C., 30 minutes; read-out: IC50 (μM) CatG", "experimental": "as §1"}}, "data": [{"molecule": "CN(C(=O)c1cc2ccccc2cc1C(=O)C(c1cccc2ccccc12)P(=O)(O)O)C1CCN(C(=O)c2ccccc2)CC1", "note": "(stereo not shown) [Compound 15]", "values": [{"measurement": "IC50", "setting": "[1]", "value": "0.017 ± 0.005", "unit": "µM"}]}, {"molecule": "Cc1ccc(/C=C/C(=O)N2CCC(N(C)C(=O)c3cc4ccccc4cc3C(=O)C(c3cccc4ccccc34)P(=O)(O)O)CC2)cc1", "note": "(stereo not shown) [Compound 9, [2-[3-[[methyl[1-[(2E)-3-(4-methylphenyl)-1-oxo-2-propenyl]-4-piperidinyl]amino]carbonyl]-2-naphthalenyl]-1-(1-naphthalenyl)-2-oxoethyl]-phosphonic acid]", "values": [{"measurement": "IC50", "setting": "[2]", "value": "0.053 ± 0.015", "unit": "µM"}, {"measurement": "IC50", "setting": "[1]", "value": "0.011 ± 0.003", "unit": "µM"}]}, {"molecule": "CN(C(=O)c1ccccc1C(=O)C(c1cccc2ccccc12)P(=O)(O)O)C1CCN(C(=O)c2ccc3ccccc3c2)CC1", "note": "(stereo not shown) [Compound 31, [2-[2-[[methyl[1-(2-naphthalenylcarbonyl)-4-piperidinyl]amino]carbonyl]phenyl]-1-(1-naphthalenyl)-2-oxoethyl]-phosphonic acid]", "values": [{"measurement": "IC50", "setting": "[2]", "value": "> 100", "unit": "µM"}, {"measurement": "IC50", "setting": "[1]", "value": "15 ± 0.67", "unit": "µM"}]}, {"molecule": "CN(C(=O)c1cc2ccccc2cc1C(=O)C(c1cccc2ccccc12)P(=O)(O)O)C1CCN(C(=O)/C=C/c2ccc(C(F)(F)F)cc2)CC1", "note": "(stereo not shown) [Compound 10, [2[3-[[methyl[1-[(2E)-1-oxo-3-[4-(trifluoromethyl)-phenyl]-2-propenyl]-4-piperidinyl]amino]carbonyl]-2-naphthalenyl]-1-(1-naphthalenyl)-2-oxoethyl]-phosphonic acid]", "values": [{"measurement": "IC50", "setting": "[2]", "value": "0.053 ± 0.016", "unit": "µM"}, {"measurement": "IC50", "setting": "[1]", "value": "0.014 ± 0.006", "unit": "µM"}]}, {"molecule": "[2-[3-[(cyclopentylmethylamino)carbonyl]-2-naphthalenyl]-1-(1-naphthalenyl)-2-oxoethyl]-phosphonic acid [Compound 21]", "values": [{"measurement": "IC50", "setting": "[2]", "value": "0.07 ± 0.02", "unit": "µM"}, {"measurement": "IC50", "setting": "[1]", "value": "0.0096 ± 0.0034", "unit": "µM"}]}, {"molecule": "COc1ccc(N2CCN(C(=O)c3cc4ccccc4cc3C(=O)C(c3cccc4ccccc34)P(=O)(O)O)CC2)cc1", "note": "(stereo not shown) [Compound 40]", "values": [{"measurement": "IC50", "setting": "[2]", "value": "0.17 ± 0.05", "unit": "µM"}]}, {"molecule": "O=C(c1cc2ccccc2cc1C(=O)N1CCN(C(=O)c2ccc3ccccc3c2)CC1)C(c1cccc2ccccc12)P(=O)(O)O", "note": "(stereo not shown) [Compound 38]", "values": [{"measurement": "IC50", "setting": "[2]", "value": "0.78 ± 0.22", "unit": "µM"}]}, {"molecule": "CN(C(=O)c1cc2ccccc2cc1C(=O)C(c1cccc2ccccc12)P(=O)(O)O)C1CCN(C(=O)CCc2ccc(C(F)(F)F)cc2)CC1", "note": "(stereo not shown) [Compound 18, [2-[3-[[methyl[1-[1-oxo-3-[4-(trifluoromethyl)phenyl]-propyl]-4-piperidinyl]amino]carbonyl]-2-naphthalenyl]-1-(1-naphthalenyl)-2-oxoethyl]-phosphonic acid]", "values": [{"measurement": "IC50", "setting": "[2]", "value": "0.028 ± 0.006", "unit": "µM"}, {"measurement": "IC50", "setting": "[1]", "value": 0.001, "unit": "µM"}]}, {"molecule": "CC(C)C(=O)N1CCC(N(C)C(=O)c2cc3ccccc3cc2C(=O)C(c2cccc3ccccc23)P(=O)(O)O)CC1", "note": "(stereo not shown) [Compound 20, [2-[3-[[methyl[1-(2-methyl-1-oxopropyl)-4-piperidinyl]amino]carbonyl]-2-naphthalenyl]-1-(1-naphthalenyl)-2-oxoethyl]-phosphonic acid]", "values": [{"measurement": "IC50", "setting": "[2]", "value": "0.09 ± 0.023", "unit": "µM"}, {"measurement": "IC50", "setting": "[1]", "value": "0.004 ± 0.002", "unit": "µM"}]}, {"molecule": "O=C(c1cc2ccccc2cc1C(=O)N1CCN(C(=O)Cc2ccc3ccccc3c2)CC1)C(c1cccc2ccccc12)P(=O)(O)O", "note": "(stereo not shown) [Compound 37]", "values": [{"measurement": "IC50", "setting": "[2]", "value": "0.74 ± 0.29", "unit": "µM"}]}, {"molecule": "[2-[3-[[[1-[(2E)-3-(4-fluorophenyl)-1-oxo-2-propenyl]-3-pyrrolidinyl]methylamino]carbonyl]-2-naphthalenyl]-1-(1-naphthalenyl)-2-oxoethyl]-phosphonic acid [Compound 5]", "values": [{"measurement": "IC50", "setting": "[2]", "value": "0.072 ± 0.021", "unit": "µM"}, {"measurement": "IC50", "setting": "[1]", "value": "0.2 ± 0.4", "unit": "µM"}]}, {"molecule": "O=C(c1cc2ccccc2cc1C(=O)N1CCN(S(=O)(=O)c2c(Cl)nc3sccn23)CC1)C(c1cccc2ccccc12)P(=O)(O)O", "note": "(stereo not shown) [Compound 42]", "values": [{"measurement": "IC50", "setting": "[2]", "value": "0.14 ± 0.03", "unit": "µM"}]}, {"molecule": "O=C(c1cc2ccccc2cc1C(=O)N1CCN(C(=O)Nc2ccc3ccccc3c2)CC1)C(c1cccc2ccccc12)P(=O)(O)O", "note": "(stereo not shown) [Compound 43]", "values": [{"measurement": "IC50", "setting": "[2]", "value": "0.95 ± 0.21", "unit": "µM"}]}, {"molecule": "O=C(c1cc2ccccc2cc1C(=O)N1CCN(S(=O)(=O)c2ccc3ccccc3c2)CC1)C(c1cccc2ccccc12)P(=O)(O)O", "note": "(stereo not shown) [Compound 35]", "values": [{"measurement": "IC50", "setting": "[2]", "value": "0.56 ± 0.18", "unit": "µM"}]}, {"molecule": "O=C(NCc1ccc(S(=O)(=O)N2CCN(C(=O)c3cc4ccccc4cc3C(=O)C(c3cccc4ccccc34)P(=O)(O)O)CC2)s1)c1ccccc1", "note": "(stereo not shown) [Compound 41]", "values": [{"measurement": "IC50", "setting": "[2]", "value": 0.31, "unit": "µM"}]}]}
